# Reference: patent publication US20250000942A1, “PEPTIDES AND METHODS OF TRANSPLANTATION AND RESTORATIVE ORGAN FUNCTION” (Prince Biotech, LLC, priority 2017, published 2025)
# Legend:
# Assay type in all cases: cell-based, human
# [1] = tested on: JEG-3 cells; assay: Influence of PIF and P4 on expression of HLA class I molecules (flow cytometry, Western blotting, surface antigen quantification); settings: 1 μg/ml P4, 24 hours
# Experimental: The cells were then incubated with the HLA-G specific mouse monoclonal antibody MEM-G9m followed by incubation with Alexa Fluor 488 conjugated antibody preparations. Fluorescence was detected by using BD Accuri C6 flow cytometer. The data was analyzed using a Flowing Software V2.5.1. […] Error bar indicates standard deviation from the mean. Statistical analysis was performed with SigmaPlot software. One way Analysis of Variance was employed to test the significance of differences among groups.
# The collected cells were further tested for expression for class I HLA molecules by using specific monoclonal antibodies.
# Treated and untreated JEG-3 cells, following exposure to test agents were detached, counted, and pelleted as described previously [14]. […] To quantify the final concentration of the proteins we used the Bradford assay following the previously described protocol with some modifications [15]. […] Five μl of each protein sample was then diluted 1:1 with PBS and incubated with the reading reagent at room temperature for 5 min. Finally, the protein concentration was determined using a spectrophotometer, extrapolating each absorbance value over the previously created standard curve. […] A pre-stained standard protein marker (Li-Cor Bioscience) was also loaded onto the gel and run parallel to the protein samples to be analyzed. […]
# [2] = tested on: JEG-3 cells; assay: Effect of PIF and P4 on JEG-3 proteome (2-DE, spot analysis, mass spectrometry)
# Experimental: Cell lysates and their protein concentration were prepared and assessed as previously described Frozen cell pellets were dissolved in hot lysis buffer (1% SDS, 100 mM Tris-HCl), and sonicated. Five percent of 2-mercaptoethanol was added. Samples were then dissolved in solubilisation buffer (8 M urea, 2.5 M thiourea, 4% 3-[(3-cholamidopropyl) dimethylammonio]-1-propanesuflate, 50 mM DTT, 24 mM spermine tetrachloride) at room temperature for 1 h. The samples were centrifuged at 12000×g for 30 min. To concentrate the protein samples, acetone precipitation was used. Once the supernatant was discarded the protein pellets were washed with a mixture of ice-cold methanol-chloroform and re-suspended in isoelectric focusing buffer (IEF) (8 M urea, 2.5 M thiourea, 4% 3-[(3-cholamidopropyl) dimethylammonio]-1-propanesuflate).
# The IPG strips were then focused using an IPGphor system (BioRad, USA). Rehydrated filter wicks were placed between the electrodes and the IPG strip. […] After IEF, strips were rinsed in deionized water, and stored at −80° C. until the second dimensional […].
# For second dimensional […], IPG strips were incubated in equilibrium buffer 1 [6 M/l urea, 20% w/v glycerol, 4% w/v SDS, 0.375 M/l Tris-HCL (pH 8.8), 5% 2-mercaptoethanol] for 15 min at room temperature. […] Strips were then rinsed in electrophoresis buffer (60.57 g Tris base, 288.27 g glycine, 20 g SDS, double distilled H2O up to 20 L). The second dimensional analysis was carried out using a Criterion gel system (Bio-Rad). Each strip was placed into the well of a 12% SDS-PAGE gel (Bio-Rad) and sealed with agarosc solution. Electrophoresis was carried out at 50 V for 30 min and following this at 150 V for 4-5 h. The gel was then fixed overnight in fixing solution (50% methanol, 5% acetic acid, 45% water), and stained using the silver staining protocol.
# The gels were scanned and analyzed using SameSpots analysis software (Nonlinear dynamics Ltd). Digitized images from 12 silver-stained gels were analyzed for spot detection and quantification. Image analysis included spot detection, editing, background subtraction and spot matching. A master image was then created, and all spots in the other gels were matched to this master image both manually and digitally. The size of a protein, which approximates the volume of the spot, was calculated by using the software. Spots identified as differentially present were excised and analyzed using mass spectrometry (MS) analysis.
# Identified spots were manually excised from the 2-DE gels using a disposable sterile scalpel spot cutter and washed in molecular biology grade water. Each spot was then subjected to in gel digestion alkylation, along with tryptic digestion so as to yield peptide fragments for MS analysis following previously described protocols.
# Peptide digests were subjected to MS analysis at the sub-picomole level through the use of a matrix assisted laser desorption ionization-time of flight (MALDI-TOF MS) so as to generate peptide mass fingerprinting (PMF). The MALDI-TOF analysis was carried out using a Bruker Daltonics Reflex IV instrument using a linear mode with a laser power attenuation setting at 30, as described previously.
# The expression data were pre-processed by mean-centering (by division and medians), and over median normalized data. A heatmap was generated via hierarchical clustering for examining protein expression and treatment (http://cran.r-project.org). The generation of a heatmap for median centered protein expression data with horizontal hierarchical clustering of different proteins utilized the median linkage agglomeration method and vertical hierarchical clustering of treatment conditions, using complete linkage agglomeration. A correlation distance metric was used for clustering data.
# [3] = tested on: JEG-3 cells; assay: ELISA for cytokine secretion by JEG-3 cells; settings: JEG-3, serum-free media, 24 hours, P4 1 μg/ml
# Experimental: At the end of the experiments the supernatant was collected and analyzed for cytokine levels. The concentrations of tumor necrosis factor alpha (TNF-a), interleukin (IL)-1, IL-8, IL-10, interferon gamma (IFN-γ), transforming growth factor beta 1 (TGF-[…]) and granulocyte macrophage colony-stimulating factor (GM-CSF) were measured using ELISA kits (eBioscience), following the manufacturer's instructions.
# [4] = P4 1 μg/ml or PIF 200 nM, 24 hours
smiles,measurement,setting,value
"CC(=O)[C@H]1CC[C@H]2[C@@H]3CCC4=CC(=O)CC[C@]4(C)[C@H]3CC[C@]12C [P4, Progesterone]","levels of HLA-G, -E, -F and -C",[1],"increased levels of HLA-G, -E, -F and -C"
same,"Average Normalized Volumes, ATP5B (spot 71)",[2]; [4],283.644
same,"Average Normalized Volumes, BBB (spot 92)",[2]; [4],544.421
same,"Average Normalized Volumes, CD59 (spot 51)",[2]; [4],388.079
same,"Average Normalized Volumes, CLIC3 (spot 69)",[2]; [4],220.958
same,"Average Normalized Volumes, DCBD2 (spot 67)",[2]; [4],413.865
same,"Average Normalized Volumes, EGFR (spot 30)",[2]; [4],313.949
same,"Average Normalized Volumes, FOXP3 (spot 98)",[2]; [4],1035.457
same,"Average Normalized Volumes, HLAG (spot 89)",[2]; [4],961.078
same,"Average Normalized Volumes, HS74L (spot 8)",[2]; [4],407.206
same,"Average Normalized Volumes, HSP71 (spot 2)",[2]; [4],328.658
same,"Average Normalized Volumes, LMNA (spot 34)",[2]; [4],276.712
same,"Average Normalized Volumes, PDIA3 (spot 24)",[2]; [4],425.280
same,"Average Normalized Volumes, PRDX2 (spot 66)",[2]; [4],144.399
same,"Average Normalized Volumes, PRGR (spot 55)",[2]; [4],277.710
same,"Average Normalized Volumes, ZSC21 / TTP (spot 32)",[2]; [4],123.015
same,number of differentially expressed proteins up-regulated (of 19),"[2]; hierarchical clustering, vs control cells",five
same,IFN-γ secretion,[3],10 pg/mL
same,TNF-α secretion,[3],1 pg/mL
same,GM-CSF secretion,"[3]; PIF 200 nM, mean ± SEM",310 ± 36.3 pg/mL
same,IL-1β secretion,"[3]; PIF 200 nM, mean ± SEM",334 ± 27.7 pg/mL
same,IL-8 secretion,"[3]; PIF 200 nM, mean ± SEM",685 ± 58.2 pg/mL
same,TGF-β1 secretion,"[3]; PIF 200 nM, mean ± SEM",398 ± 32.4 pg/mL
